In brackets after ≈: the same amount, converted by molar mass.

This is an account of results in patent publication US11192888B2, “Antibacterial compounds” (priority 2017, dated 2021).

Assay [1] has as its system Bacteroides fragilis ATCC 25285. The assay can be described thus: microbe, parasite or virus in culture. The note with it: ATCC25285.
The test system of assay [2] is Clostridium sordellii ATCC 9714. Put plainly: CLSI MIC, representative gut bacteria. The format is cell-based. The note with it: Paraclostridium sordellii, ATCC9714, read-out: MIC. The procedure:
(§1) Comparative in vitro bacterial susceptibility to compounds 3, 9 and 10, vancomycin and metronidazole was determined using methods according to the Clinical and Laboratory Standard Institute (CLSI) approved guidelines (M7-A10, M11-A7 or M45-A2) for anaerobic and aerobic organisms.

For assay [3], the system named is Clostridium difficile ATCC 43255. The assay can be described thus: CLSI MIC, representative gut bacteria. The format is cell-based. As to conditions: Clostridioides difficile, ATCC43255; Clostridium difficile ATCC 43255; read-out: MIC. The procedure: as §1
Assay [4] has as its system Propionibacterium acnes ATCC 6919. The assay can be described thus: microbe, parasite or virus in culture. As to conditions: Cutibacterium acnes, ATCC6919.
Assay [5] deals with Clostridium innocuum DSM 1286. Put plainly: microbe, parasite or virus in culture. As to conditions: DSM1286.
For assay [6], the system named is Bifidobacterium bifidum ATCC 11863. Put plainly: microbe, parasite or virus in culture. The note with it: ATCC11863.
The test system of assay [7] is Actinomyces viscosus DSM 43327. Put plainly: microbe, parasite or virus in culture. The note with it: DSM43327.
Assay [8] concerns Clostridium perfringens NCTC 8237. The assay can be described thus: microbe, parasite or virus in culture.
In assay [9] the test system is Bifidobacterium breve ATCC 15700. Put plainly: microbe, parasite or virus in culture. The note with it: ATCC15700.
Assay [10] concerns Clostridium ramosum DSM 1402. The assay can be described thus: microbe, parasite or virus in culture. The note with it: Thomasclavelia ramosa, DSM1402.

On to `Cc1ncc([N+](=O)[O-])n1CCO` [Metronidazole], for which the MIC in [1] is 0.5 µg/mL (≈ 2.92 µM); in [2], 1 µg/mL (≈ 5.84 µM); in assay [3] it was 0.5 µg/mL (≈ 2.92 µM); in [4], greater than 64 µg/mL; in assay [5], 0.5 µg/mL (≈ 2.92 µM); in [6], 2 µg/mL (≈ 11.7 µM). For the same compound, the MIC in [7] came to 2 µg/mL (≈ 11.7 µM); in assay [8], 1 µg/mL (≈ 5.84 µM); in [9], 4 µg/mL (≈ 23.4 µM); in assay [10], 4 µg/mL (≈ 23.4 µM).
